Test [1] addresses T1, human GPR120 (Homo sapiens, UniProt Q5NUL3).
T1 construct: host or cells: CHO-K1
Put plainly: GPR120 β-Arrestin Recruitment Assay (PathHunter, CHO-K1 cells). The format is cell-based. Conditions: pEC50=−log(EC50) from curve fit; CHO-K1 cells, 90 min incubation; read-out: β-Arr pEC50 (converted). From the text:
This in vitro assay tests compounds' ability to activate intracellular signaling via 3-Arrestin recruitment to heterologously expressed human GPR120. This functional cellular assay utilizes enzyme fragment complementation with β-galactosidlase (β-gal) as a functional reporter (DiscoveRx PathlHunter® β-Arrestin assay platform). The human (GPR120 receptor (GenBank accession Number NM_181745) was fused in frame with the small enzyme fragment ProLink™ and co-expressed in CHO-K1 cells with a fusion protein of β-Arrestin 2 and the larger, N-terminal deletion mutant of β-gal. Activation by a GPR120 agonist stimulates binding of β-arrestin to the ProLink-tagged GPCR and forces complementation of the two enzyme fragments, resulting in the formation of an active β-gal enzyme. This interaction leads to an increase in enzyme activity that can be measured using chemiluminescent PathHunter® Detection Reagents.
One day prior to the assay, cells were seeded in a total volume of 20 μl of growth medium into white walled 384-well microplates and incubated at 37° C./5% CO2 overnight. On the day of the assay, growth medium was removed and 20 μl assay buffer (HBSS+10 mM HEPES+0.1% heat-inactivated BSA) were added to each well.
Test compounds were dissolved in 100% DMSO to a concentration of 10 mM to provide stock solutions. Serial dilutions were performed from stock solutions into assay buffer to obtain intermediate concentrations of 5-fold higher than the concentrations to be tested. 5 μl of the 5× compound solutions were added to the cells and the assay plates were incubated at 37° C. for 90 minutes. The final concentration of compounds tested in the assay ranged from 1.5 nM to 100 μM. Following incubation, 12.5 μl of PathHunter® detection reagent were added to each well, and plates were incubated at room temperature for 60 minutes. Chemiluminescence was read using an EnVision plate reader (PerkinElmer), raw data were expressed as relative light units (RLU).
(§1) To determine agonist potencies (EC50 values), non-linear least-squares curve fits of the raw data (RLU) were performed in the GraphPad Prism software package, using the 4-parameter model with variable Hill Slope:
Reported below in Table 1 are pEC50 values (pEC50=−log(EC50) from curve fit) for compounds of Formula I in this assay, β-Arr pEC50 Alternatively, percent activation at a single concentration is reported.
T1 sequence (Q5NUL3 1-377 isoform Q5NUL3-1): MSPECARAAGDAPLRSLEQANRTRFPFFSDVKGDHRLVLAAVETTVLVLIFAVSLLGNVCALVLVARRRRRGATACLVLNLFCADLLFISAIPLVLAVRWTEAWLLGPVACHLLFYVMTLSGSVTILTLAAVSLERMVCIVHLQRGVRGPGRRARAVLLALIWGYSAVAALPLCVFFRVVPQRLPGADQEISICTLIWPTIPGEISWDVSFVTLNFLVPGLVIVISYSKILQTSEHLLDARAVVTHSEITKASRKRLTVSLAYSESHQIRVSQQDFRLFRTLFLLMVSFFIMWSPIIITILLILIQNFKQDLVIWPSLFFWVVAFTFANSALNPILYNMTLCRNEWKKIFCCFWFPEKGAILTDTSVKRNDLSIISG
T1 sequence (P32121 whole entry partner): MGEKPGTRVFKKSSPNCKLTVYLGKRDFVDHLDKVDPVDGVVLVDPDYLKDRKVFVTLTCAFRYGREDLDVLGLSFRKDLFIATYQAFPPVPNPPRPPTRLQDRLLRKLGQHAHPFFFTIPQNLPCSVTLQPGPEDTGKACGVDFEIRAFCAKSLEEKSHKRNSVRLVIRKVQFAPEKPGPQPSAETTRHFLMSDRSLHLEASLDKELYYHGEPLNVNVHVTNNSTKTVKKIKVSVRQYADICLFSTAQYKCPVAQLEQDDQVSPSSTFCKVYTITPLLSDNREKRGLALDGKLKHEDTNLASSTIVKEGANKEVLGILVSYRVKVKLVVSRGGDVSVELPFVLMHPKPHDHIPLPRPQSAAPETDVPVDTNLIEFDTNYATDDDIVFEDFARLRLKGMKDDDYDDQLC

Test [2] concerns the target T2, human GPR120 (Homo sapiens, UniProt Q5NUL3).
T2 construct: expressed in transfected cells; host or cells: CHO-K1 coexpressing Gα16 and mitochondrial apoaequorin
T2 sequence (Q5NUL3 1-361): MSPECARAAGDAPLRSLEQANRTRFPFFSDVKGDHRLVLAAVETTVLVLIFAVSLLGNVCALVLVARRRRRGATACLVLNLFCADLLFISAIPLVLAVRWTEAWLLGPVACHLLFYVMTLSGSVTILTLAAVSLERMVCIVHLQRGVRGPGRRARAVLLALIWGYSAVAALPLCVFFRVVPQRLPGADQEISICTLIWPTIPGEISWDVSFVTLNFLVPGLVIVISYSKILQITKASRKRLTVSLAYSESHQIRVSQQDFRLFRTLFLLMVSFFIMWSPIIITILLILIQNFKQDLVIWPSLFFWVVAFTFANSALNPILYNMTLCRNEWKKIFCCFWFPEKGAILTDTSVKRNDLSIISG
Briefly: Human GPR120 Calcium-Release Assay (aequorin luminescence, CHO-K1 cells). The format is cell-based. The conditions noted are these: pEC50=−log(EC50) from curve fit; short variant of human GPR120 in CHO-K1 with Gα16 and apoaequorin; read-out: Ca2+ pEC50 (converted).
From the text: This in vitro assay tests compounds' ability to activate heterologously expressed human GPR120 via G-protein coupling leading to generation of inositol 1,4,5-triphosphate and mobilization of intracellular calcium. This functional cellular assay is based on the luminescence of mitochondrial aequorin following intracellular Ca^2+ release. Aequorin is a photoprotein isolated from the jellyfish Aequorea victoria. The active protein is formed in the presence of molecular oxygen from apoaequorin and its cofactor coelenterazine. Binding of Ca^2+ to the active protein induces a conformational change, resulting in oxidation of coelenterazine and subsequent blue luminescence.
The short variant of the human GPR120 receptor (GenBank accession Number AAI01176) was stably expressed in a CHO-K1 cell line coexpressing Gα16 and mitochondrial apoaequorin.
Cells were grown to mid-log phase in culture media without antibiotics, were detached with PBS/EDTA, centrifuged and resuspended in assay buffer (DMEM-F12 medium with 15 mM HEPES pH 7.0 and 0.1% protease free BSA) at a concentration of 10^6 cells/mL. Cells were incubated at room temperature for at least 4 hours with 5 μM coelenterazine h.
Test compounds were dissolved in 100% DMSO to a concentration of 20 mM to provide stock solutions. Serial dilutions were performed from stock solutions in 100% DMSO to obtain intermediate concentrations 200-fold higher than the concentrations to be tested. Each sample was diluted 100-fold into assay buffer. 50 μl of these compound solutions were dispensed into each well of 96-well assay plates. The final concentration of compounds tested in the assay ranged from 5 nM to 100 μM. α-Linolenic acid was used as a reference compound. Each test was performed in duplicate.
To start the assay, 50 μl of cell suspension were added to each well of the assay plate. The resulting luminescence was recorded using a Hamamatsu Functional Drug Screening System 6000 (FDSS 6000), and raw data were expressed as relative light units (RLU).
as §1
Reported below in Table 1 are pEC50 values (pEC50=−log(EC50) from curve fit) for representative compounds of Formula I in this assay, Ca2+pEC50.

Some results are limits rather than exact numbers.

In the case of `CN1CCC(Oc2nccc(N3Cc4ccccc4S3(=O)=O)n2)C1` (centres unmarked) [Compound 63], the EC50 is 501 nM on human GPR120 [1] and greater than 100000 nM at human GPR120 [2].

For the molecule `CCOc1nccc(N2Cc3ccccc3S2(=O)=O)n1` [Compound 67], the EC50 is greater than 10000 nM on human GPR120 [1] and 6310 nM on human GPR120 [2].

With `O=S1(=O)c2ccccc2CN1c1ccnc(OCc2ccccn2)n1` [Compound 72], the values for the EC50 on human GPR120 [1] and on human GPR120 [2] were greater than 10000 nM and greater than 100000 nM, respectively.

For `Cc1cc(N2Cc3ccccc3S2(=O)=O)nc(Oc2cccnc2)n1` [Compound 77], the results for the EC50 on human GPR120 [1] and on human GPR120 [2] were 2510 nM and 1000 nM, respectively.

With `O=S1(=O)c2ccccc2CN1c1cc(C(F)(F)F)nc(Oc2cccnc2)n1` [Compound 78], the figures for the EC50 at human GPR120 [1] and at human GPR120 [2] were 1580 nM and 3980 nM, respectively.

Take `COc1cc(N2Cc3ccccc3S2(=O)=O)nc(Oc2cccnc2)n1` [Compound 79]: the EC50 is 1580 nM on human GPR120 [1] and 501 nM on human GPR120 [2].

Regarding `COc1cc(Oc2cccnc2)nc(N2Cc3ccccc3S2(=O)=O)n1` [Compound 80], the EC50 was 501 nM at human GPR120 [1] and 2510 nM at human GPR120 [2].

In the case of `CCc1cc(N2Cc3ccccc3S2(=O)=O)nc(Oc2cccnc2)n1` [Compound 82], the EC50 at human GPR120 [1] was 2510 nM; at human GPR120 [2] it was 1260 nM.

As to `O=S1(=O)c2ccccc2CN1c1cc(C2CC2)nc(Oc2cccnc2)n1` [Compound 83], the figures for the EC50 at human GPR120 [1] and on human GPR120 [2] were 2510 nM and 794 nM, respectively.

Regarding `Cc1cc(N2Cc3ccccc3S2(=O)=O)nc(Oc2ccc(Cl)cc2)n1` [Compound 86], the EC50 on human GPR120 [1] is 251 nM; at human GPR120 [2], 398 nM.

`Cc1cc(Oc2ccc(Cl)cc2)nc(N2Cc3ccccc3S2(=O)=O)n1` [Compound 87]: the figures for the EC50 on human GPR120 [1] and at human GPR120 [2] were 794 nM and 1580 nM, respectively.

As to `CNC(=O)c1cc(N2Cc3ccccc3S2(=O)=O)nc(Oc2ccc(Cl)cc2)n1` [Compound 89], the EC50 on human GPR120 [1] is 2510 nM; at human GPR120 [2], 20000 nM.

Turning to `COc1cc(Oc2ccc(Cl)cc2)nc(N2Cc3ccccc3S2(=O)=O)n1` [Compound 96], the EC50 at human GPR120 [1] was 1000 nM; on human GPR120 [2], greater than 10000 nM.

On to `O=S1(=O)c2ccccc2CN1c1cc(C(F)(F)F)nc(Oc2ccc(Cl)cc2)n1` [Compound 97], for which the EC50 at human GPR120 [1] was 631 nM; at human GPR120 [2], 1000 nM.

For `O=S1(=O)c2ccccc2CN1c1cc(C(F)(F)F)nc(Oc2ccccc2)n1` [Compound 98], the EC50 at human GPR120 [1] is 794 nM; on human GPR120 [2], 2510 nM.

For the molecule `COc1cc(N2Cc3ccccc3S2(=O)=O)nc(Oc2ccc(F)cc2)n1` [Compound 99], the EC50 on human GPR120 [1] was 501 nM; at human GPR120 [2] it was 158 nM.

As to `COc1cc(Oc2ccc(F)cc2)nc(N2Cc3ccccc3S2(=O)=O)n1` [Compound 101], the EC50 was 398 nM on human GPR120 [1] and greater than 100 nM on human GPR120 [2].

With `Cc1cc(N2Cc3ccccc3S2(=O)=O)nc(Oc2ccc(F)cc2)n1` [Compound 106], the EC50 at human GPR120 [1] is 1000 nM; on human GPR120 [2], 200 nM.

Turning to `O=S1(=O)c2ccccc2CN1c1nccc(Oc2cccnc2)n1` [Compound 114], the EC50 at human GPR120 [1] was 12600 nM; at human GPR120 [2], 15800 nM.

Consider `O=S1(=O)c2ccccc2CN1c1cccc(Oc2cccnc2)n1` [Compound 121], for which the EC50 is 1580 nM on human GPR120 [1] and 200 nM on human GPR120 [2].

`O=C1c2ccccc2CN1c1cccc(Oc2cccnc2)n1` [Compound 122]: the EC50 at human GPR120 [1] is greater than 10000 nM; at human GPR120 [2], 501 nM.

For the molecule `O=S1(=O)c2ccccc2CN1c1cccc(Oc2cccc(Cl)c2)n1` [Compound 123], the figures for the EC50 at human GPR120 [1] and at human GPR120 [2] were greater than 31600 nM and greater than 100000 nM, respectively.

`Cc1cc(OC2CCC2)nc(N2Cc3ccccc3S2(=O)=O)c1` [Compound 128]: the EC50 at human GPR120 [1] is 39.8 nM; at human GPR120 [2], 79.4 nM.

With `Cc1cc(Oc2ccc(Cl)cc2)nc(N2Cc3ccccc3S2(=O)=O)c1` [Compound 131], the EC50 is 158 nM on human GPR120 [1] and 316 nM at human GPR120 [2].

`O=S1(=O)c2ccccc2CN1c1cncc(Oc2cccnc2)n1` [Compound 142]: the EC50 is 39800 nM at human GPR120 [1] and 1260 nM at human GPR120 [2].

These data come from patent publication US12116362B2, “Monocyclic compounds useful as GPR120 modulators” (Valo Health, Inc., priority 2016, dated 2024).
